Measured values taken from US4228288A, “Certain substituted 3,4,5,6-tetrahydropyridinium salt intermediates” (Eli Lilly and Company, priority 1979, dated 1980).
Where two headings read alike, the source gives them in different places.

Experiments:
[1] = standard mouse writhing assay (inhibition of induced writhing); assay type: in vivo
Source text: (§1) The analgesic activity of a number of compounds provided by this invention has been determined in the standard rat-tail jerk assay and the mouse writhing assay. The results in the mouse writhing assay are presented as the effective dose in mg./kg. of the tested compound required to inhibit induced writhing in the test animals by fifty percent (ED50). Results are presented in Column II for both subcutaneous (S.C.) and oral (p.o.) administration of the test compound recited in Column I.

[2] = standard rat-tail jerk assay (delay of response to heat stimulus); assay type: in vivo; details: subcutaneous, heat sensation
Source text: as §1
Column III presents the effects of the claimed compounds on rats subjected to a heat sensation. The compounds recited in column I were administered subcutaneously to the test animals. The test results are reported as the minimum effective dose (MED) of compound in mg./kg. needed to delay response to the pain stimulus by one second compared to control animals.

[3] = oral, read-out: Mouse Writhing ED50 p.o. (dose required to inhibit induced writhing by fifty percent)
[4] = sc, subcutaneous, read-out: Mouse Writhing ED50 s.c. (dose required to inhibit induced writhing by fifty percent)

SMILES	ED50 [1, 3] [mg/kg]	ED50 [1, 4] [mg/kg]	Rat Tail Jerk MED 1 sec. (minimum effective dose to delay response to the pain stimulus by one second compared to control animals) [2] [mg/kg]
CCOC(=O)C1(c2ccccc2)CCN(C)CC1 [Meperidine, meperidine, reference compound]	21	2.8	3.0
COc1cccc(C2(C)CC(C)N(C)CC2C)c1 (stereo not drawn) [1,2,4,5-Tetramethyl-4-(3-methoxyphenyl)piperidine]	16	19	10
CC1CC(C)(c2cccc(O)c2)C(C)CN1C (stereo not drawn) [1,2,4,5-Tetramethyl-4-(3-hydroxyphenyl)piperidine]	9.2	1.25	1
CCCC1(c2cccc(O)c2)CC(C)N(C)CC1C (stereo not drawn) [1,2,5-trimethyl-4-n-propyl-4-(3-hydroxyphenyl)piperidine]	16	29	20
CCCC1(c2cccc(OC)c2)CC(C)N(C)CC1C (stereo not drawn) [1,2,5-Trimethyl-4-n-propyl-4-(3-methoxyphenyl)-piperidine]	11.5	4	2
